In data set [1] the test system is Myzus persicae. Briefly: Myzus persicae - oral test. It counts as in vivo. The settings on record: application rate 4 ppm, after 5 days, green peach aphids, mixed population, oral uptake. As for the experimental part: Myzus persicae—Oral Test Solvent: 100 parts by weight of acetone To produce a suitable preparation of active compound, 1 part by weight of active compound is dissolved using the specified parts by weight of solvent and made up with water until the desired concentration is attained. 50 μl of the active compound preparation are transferred into microtitre plates and made up to a final volume of 200 μl with 150 μl of IPL41 insect medium (33%+15% sugar). Subsequently, the plates are sealed with parafilm, which a mixed population of green peach aphids (Myzus persicae) within a second microtitre plate is able to puncture and imbibe the solution through it. After 5 days, the efficacy in % is determined. 100% means that all the aphids have been killed; 0% means that no aphids have been killed.

For data set [2], the system named is Myzus persicae. Nature of the data set: Myzus persicae - spray test. The conditions noted are these: application rate 20 g/ha, after 5 days, sprayed Chinese cabbage leaf discs, all stages of green peach aphid. It counts as in vivo. As to the method:
Myzus persicae—Spray Test Solvent: 78 parts by weight of acetone • • 1.5 parts by weight of dimethylformamide Emulsifier: alkylaryl polyglycol ether To produce a suitable active compound preparation, 1 part by weight of active compound is dissolved with the specified parts by weight of solvent and made up with water containing an emulsifier concentration of 1000 ppm until the desired concentration is attained. To produce further test concentrations, the formulation is diluted with emulsifier-containing water. Discs of Chinese cabbage leaves (Brassica pekinensis) infested by all stages of the green peach aphid (Myzus persicae) are sprayed with an active compound formulation of the desired concentration. After 5 days, the efficacy in % is determined. 100% means that all the aphids have been killed; 0% means that no aphids have been killed.

The next data set has as its system Phaedon cochleariae. Briefly: Phaedon cochleariae - spray test. The settings on record: application rate 100 g/ha, after 7 days, sprayed Chinese cabbage leaf discs, mustard beetle larvae. It counts as in vivo. As to the method: Phaedon cochleariae—Spray Test
Solvent: 78.0 parts by weight of acetone • • 1.5 parts by weight of dimethylformamide
Emulsifier: alkylaryl polyglycol ether
To produce a suitable active compound preparation, 1 part by weight of active compound is dissolved with the specified parts by weight of solvent and made up with water containing an emulsifier concentration of 1000 ppm until the desired concentration is attained. To produce further test concentrations, the formulation is diluted with emulsifier-containing water.
Discs of Chinese cabbage leaves (Brassica pekinensis) are sprayed with an active compound formulation of the desired concentration and, after drying, populated with larvae of the mustard beetle (Phaedon cochleariae).
After 7 days, the efficacy in % is determined. 100% means that all the beetle larvae have been killed; 0% means that no beetle larvae have been killed.

Data set [3] is described as follows: log P by HPLC on a reversed-phase column (C18), EEC Directive 79/831 Annex V.A8. It counts as physicochemical. The conditions noted are these: 55° C. As for the experimental part: The log P values are measured according to EEC Directive 79/831 Annex V.A8 by HPLC (high-performance liquid chromatography) on a reversed-phase column (C18). Temperature: 55° C. The LC-MS determination in the acidic range is carried out at pH 2.7 using the mobile phases 0.1% aqueous formic acid and acetonitrile (contains 0.1% formic acid); linear gradient from 10% acetonitrile to 95% acetonitrile. Called log P (HCOOH) or log P[a] in the table. The LC-MS determination in the neutral range is carried out at pH 7.8 using the mobile phases 0.001 molar aqueous ammonium bicarbonate solution and acetonitrile; linear gradient from 10% acetonitrile to 95% acetonitrile. Called log P (neutral) or log P[n] in the table. Calibration is carried out using unbranched alkan-2-ones (having 3 to 16 carbon atoms) with known log P values (log P values determined on the basis of the retention times by linear interpolation between two successive alkanones).

The mark [4] stands for this setting: acidic range, pH 2.7, 0.1% aqueous formic acid/acetonitrile gradient, read-out: log P[a] (log P (HCOOH)).
[5] abbreviates: neutral range, pH 7.8, 0.001 molar aqueous ammonium bicarbonate/acetonitrile gradient, read-out: log P[n] (log P (neutral)).

Molecules are shown by their SMILES. Where two headings read alike, the source gives them in different places.

Take `CCS(=O)(=O)c1c(-c2nc3cc(C(F)(F)F)cnc3n2C)ncc2ncsc12` [Example I-1, 7-(Ethylsulfonyl)-6-[3-methyl-6-(trifluoromethyl)-3H-imidazo[4,5-b]pyridin-2-yl][1,3]thiazolo[4,5-c]pyridine]: the “efficacy in % (aphids killed)” value in the data set with Myzus persicae [1] came out at 100%; with Myzus persicae [2], 90%. Also, the “efficacy in % (beetle larvae killed)” value with Phaedon cochleariae is on record as 83%. Besides, the chromatographic logP in data set [3] (setting [4]) came out at 2.6; in data set [3] (setting [5]), 2.53.

Consider `CC[S+]([O-])c1c(-c2nc3cc(C(F)(F)F)cnc3n2C)ncc2ncsc12` (centres unmarked) [Example I-2, 7-(Ethylsulfinyl)-6-[3-methyl-6-(trifluoromethyl)-3H-imidazo[4,5-b]pyridin-2-yl][1,3]thiazolo[4,5-c]pyridine], for which the values for the chromatographic logP in data set [3] (setting [4]) and in data set [3] (setting [5]) were 3.09 and 2.98, respectively.

Consider `CCSc1c(-c2nc3cc(C(F)(F)F)cnc3n2C)ncc2ncsc12` [Example I-3, 7-(Ethylsulfanyl)-6-[3-methyl-6-(trifluoromethyl)-3H-imidazo[4,5-b]pyridin-2-yl][1,3]thiazolo[4,5-c]pyridine], for which the results for the chromatographic logP in data set [3] (setting [4]) and in data set [3] (setting [5]) were 2.96 and 2.94, respectively.

With `CCS(=O)(=O)c1c(-c2nc3cc(C(F)(F)F)cnc3n2C)ncc2ccsc12` [Example I-4], the entries for the “efficacy in % (aphids killed)” value in the data set with Myzus persicae [1] and in the data set with Myzus persicae [2] were 100% and 90%, respectively. Also, the “efficacy in % (beetle larvae killed)” value in the data set on Phaedon cochleariae amounted to 100%. In addition, the chromatographic logP in data set [3] (setting [4]) amounted to 2.88; in data set [3] (setting [5]), 2.82.

On to `CCS(=O)(=O)c1c(-c2nc3cc(C(F)(F)F)ncc3n2C)ncc2ccsc12` [Example I-5], for which the “efficacy in % (aphids killed)” value in the data set with Myzus persicae [2] was determined as 90%. The chromatographic logP in data set [3] (setting [4]) came to 2.53; in data set [3] (setting [5]) it was 2.4.

Regarding `CCSc1c(-c2nc3cc(C(F)(F)F)ncc3n2C)ncc2ccsc12` [Example I-6], the chromatographic logP in data set [3] (setting [4]) turned out to be 2.95; in data set [3] (setting [5]), 2.85.

In the case of `CCS(=O)(=O)c1c(-c2nc3cc(C(F)(F)F)cnc3n2C)ncc2sccc12` [Example I-7], the “efficacy in % (aphids killed)” value in the data set on Myzus persicae [1] and in the data set on Myzus persicae [2] was 100% throughout. The results for the chromatographic logP in data set [3] (setting [4]) and in data set [3] (setting [5]) were 2.56 and 2.72, respectively.

With `CCS(=O)(=O)c1c(-c2nc3cc(C(F)(F)F)ncc3n2C)ncc2sccc12` [Example I-8], the “efficacy in % (aphids killed)” value in the data set with Myzus persicae [1] and with Myzus persicae [2] was 100% each time. Further, the chromatographic logP in data set [3] (setting [4]) was 2.3; in data set [3] (setting [5]), 2.28.

With `CCOC(=O)c1ncc2ncsc2c1SCC` [XL-1, Ethyl 7-(ethylsulfanyl)[1,3]thiazolo[4,5-c]pyridine-6-carboxylate], the figures for the chromatographic logP in data set [3] (setting [4]) and in data set [3] (setting [5]) were 2.23 and 2.17, respectively.

Consider `CCSc1c(C(=O)O)ncc2ncsc12` [XLI-1, 7-(Ethylsulfanyl)[1,3]thiazolo[4,5-c]pyridine-6-carboxylic acid], for which the chromatographic logP in data set [3] (setting [4]) amounted to 0.88.

For the compound `CCOC(=O)c1ncc2ncsc2c1OS(=O)(=O)C(F)(F)F` [XXXIV-1, Ethyl 7-{[(trifluoromethyl)sulfonyl]oxy}[1,3]thiazolo[4,5-c]pyridine-6-carboxylate], the values for the chromatographic logP in data set [3] (setting [4]) and in data set [3] (setting [5]) were 2.58 and 2.57, respectively.

(Values after US10561145B2, “Fused bicyclic heterocycle derivatives as pesticides” (Bayer CropScience Aktiengesellschaft, priority 2016, dated 2020).)
